From patent US20260373248A1, “DEGRADABLE PEPTOIDS” (Medici Therapeutics, Inc., priority 2023, published 2026)
Starred links: 1 amine or outer side, 2 acyl side, 3 side chain; linkers in the order of their positions; H or OH if unused. Non-standard residues stand in square brackets, D forms with d. Residues, ends and D or L forms follow the SMILES beside them. *: point of attachment. Gly(N-(3-decanoyloxypropyl)) = CCCCCCCCCC(=O)OCCCNCC(=O)O; Gly(N-(CH2)3O-octanoyl) = CCCCCCCC(=O)OCCCNCC(=O)O; N(3-imidazol-1-ylpropyl)Gly = O=C(O)CNCCCn1ccnc1; Gly(N-3-morpholinopropyl) = O=C(O)CNCCCN1CCOCC1; X5 = CCCCC(CC)C(=O)OCCCCCCN(CC(=O)[*:2])[*:1]; X4 = CCCCCCCCCCCC(=O)OCCN(CC(=O)[*:2])[*:1]; N(2-ethylhexyl)Gly = CCCCC(CC)CNCC(=O)O; X6 = CCCCCCCC(=O)OCCN(CC(=O)[*:2])[*:1]; X1 = CCCCC(CC)CSSCCN(CC(=O)[*:2])[*:1]; X7 = CCCCCCCCCCSSCCN(CC(=O)[*:2])[*:1]; Gly(N-dodecyl) = CCCCCCCCCCCCNCC(=O)O; N(CH(CH2OH)2)Gly = O=C(O)CNC(CO)CO; N(octyl)Gly = CCCCCCCCNCC(=O)O; NDecylGly = CCCCCCCCCCNCC(=O)O; For = O=C*

What was measured:
[1] = Delivery vehicle size and polydispersity by dynamic light scattering; type: physicochemical
Method: Delivery vehicles were formulated by rapid microfluidic mixing using a high throughput microfluidic system. Briefly, ethanol solutions containing peptoid, DSPC, Cholesterol, DMG-PEG2000 at weight ratio of 20:1.79:7.16:1.84, were mixed with 10 mM sodium citrate buffer (pH 5.0) containing synthesized mRNA at a ratio of 1:3 by volume. Peptoid based LNPs were subsequently dialyzed against 1-2 liters of tris-sucrose buffer (TS7, pH 7.4) overnight at 4 °C. Delivery vehicle size and polydispersity (PDI) was measured by dynamic light scattering in PBS.
(§1) Degradable peptoids described herein were formulated as various formulations described in Table 3 according to the procedure described in Example 2. Particle size was characterized as described in Example 2, and […] encapsulation of mRNA was determined as described in Example 3.

[2] = tested on: mRNA; assay: mRNA encapsulation (modified Quant-iT RiboGreen assay); type: physicochemical; details: for mean percent encapsulation of RNA: RiboGreen, without vs with Triton X-100; for % Encapsulation: mRNA
Method: The mRNA concentration and the percentage of encapsulated mRNA were determined using fluorescent-based Quant-iT RiboGreen RNA Reagent Kit (Life Technologies, Waltham, MA) as described previously. To determine the mRNA concentration, PNPs was incubated with […] for 10 min to release entrapped mRNA, followed by addition of RiboGreen RNA reagent. The fluorescence intensity of mRNA-RiboGreen reagent complex (excitation at 485 nm and emission at 530 nm) was detected using a microplate reader. The ratio of fluorescence without and with Triton X-100 were used to calculate the percentage of encapsulated mRNA.
as §1

[3] = tested on: firefly luciferase; assay: In vivo firefly luciferase expression after intravenous injection of fLuc mRNA delivery vehicles (IVIS imaging); design: species or system female Balb/c mice; details: for Total Flux: mice, 2.5 ug fLuc mRNA intravenously, 6 hours post-injection; for Total Flux (luciferase expression): fLuc mRNA, intravenous, Balb/c mice
Method: (§2) All animal studies were conducted under accreditation by the California State Department of Public Health and under supervision of IACUC and Veterinarian Supervision. For imaging studies, female Balb/c mice (6-8 weeks old) were obtained and acclimatized for a minimum of 3 days prior to experiments. The animals were maintained on a 12 hour light cycle in a temperature and humidity controlled room. A daily health check was performed as well as food and water check. For dosing, mice were injected with 2.5 ug fLuc mRNA-containing Nutshells intravenously in 100 μL total injection value. At 6 hours post-injection, mice were anesthetized with isoflurane, injected IP with 30 mg/mL D-luciferin at a dose of 10 μL per gram bodyweight intraperitoneally. Imaging was done 10 minutes post D-luciferin injection using an IVIS Spectrum Imaging System (Caliper Life Sciences). Immediately after in vivo imaging, mice were terminally bled by cardiac puncture and euthanized. The organs of interest were harvested, placed in black 24-well plates, and imaged. Living Image software (Perkin Elmer) was used to quantify the total photon flux in regions of interest.
Luciferase expression in these formulations was also determined as described in Example 4.

[4] = tested on: luciferase; assay: Luciferase expression after local (intramuscular or subcutaneous) administration of mRNA; type: in vivo; details: mRNA 0.01 mpk, 6 hours; for IM Flux: intramuscular; for SC Flux: subcutaneous
Method: as §2
Aminolipidated peptoids were also effective for local administration of mRNA through subcutaneous (S.C.) or intramuscular (I.M.) routes of administration. For these examples, mRNA was administered at a dose of 0.1 mpk for intratomoral, or 0.01 mpk for subcutaneous and intramuscular administration, and the resulting bioluminescence quantified after 6 hours according to a similar procedure as described in Example 4.

[5] = DLS in PBS, peptoid:DSPC:Cholesterol:DMG-PEG2000 weight ratio 20:1.79:7.16:1.84, mRNA

Compound | PDI [1, 5] | Particle Size [1, 5] | mean percent encapsulation of RNA [2] | Total Flux [3] | IM Flux [4] | SC Flux [4] | further results
CCCCCCCC(=O)OCCN(CC(=O)N(CC(=O)N(CC(=O)N(CCOC(=O)CCCCCCC)CC(=O)N(CC(N)=O)CC(CC)CCCC)CC(CC)CCCC)CC(CC)CCCC)C(=O)CN(CC(CC)CCCC)C(=O)CNC(CO)CO (stereo not shown) [Compound 1] (H-[N(CH(CH2OH)2)Gly][N(2-ethylhexyl)Gly][X6][N(2-ethylhexyl)Gly][N(2-ethylhexyl)Gly][X6][N(2-ethylhexyl)Gly]-NH2) | 0.094 | 79.7 nm | 93.0% | 7.71E+08 p/s |  |  | 
CCCCCCCCCCSSCCN(CC(=O)N(CC(N)=O)CC(CC)CCCC)C(=O)CN(CC(CC)CCCC)C(=O)CN(CC(CC)CCCC)C(=O)CN(CCCCCCCCCC)C(=O)CN(CC(CC)CCCC)C(=O)CNC(CO)CO (stereo not shown) [Compound 36] (H-[N(CH(CH2OH)2)Gly][N(2-ethylhexyl)Gly][NDecylGly][N(2-ethylhexyl)Gly][N(2-ethylhexyl)Gly][X7][N(2-ethylhexyl)Gly]-NH2) |  |  |  | 3.51E+09 p/s |  |  | 
CCCCCCCCCC(=O)OCCCN(CC(=O)N(CC(N)=O)CC(CC)CCCC)C(=O)CN(CCCCCCCC)C(=O)CN(CC(CC)CCCC)C(=O)CN(CCCOC(=O)CCCCCCCCC)C(=O)CN(CCCCCCCC)C(=O)CNCCCn1ccnc1 (stereo not shown) [Compound 111] (H-[N(3-imidazol-1-ylpropyl)Gly][N(octyl)Gly][Gly(N-(3-decanoyloxypropyl))][N(2-ethylhexyl)Gly][N(octyl)Gly][Gly(N-(3-decanoyloxypropyl))][N(2-ethylhexyl)Gly]-NH2) | 0.148 | 105.5 nm | 72.3% | 3.16E+08 p/s | 4.89E+07 p/s | 6.25E+07 p/s | 
CCCCCCCCCC(=O)OCCCN(C=O)CC(=O)N(CC(=O)N(CCCOC(=O)CCCCCCCCC)CC(=O)N(CCCN1CCOCC1)CC(=O)N(CCCOC(=O)CCCCCCCCC)CC(=O)N(CC(=O)N(CCCOC(=O)CCCCCCCCC)CC(N)=O)CC(CC)CCCC)CC(CC)CCCC (stereo not shown) [Compound 121] (For-[Gly(N-(3-decanoyloxypropyl))][N(2-ethylhexyl)Gly][Gly(N-(3-decanoyloxypropyl))][Gly(N-3-morpholinopropyl)][Gly(N-(3-decanoyloxypropyl))][N(2-ethylhexyl)Gly][Gly(N-(3-decanoyloxypropyl))]-NH2) | 0.166 | 82.9 nm | 72.1% |  | 4.54E+07 p/s | 5.20E+07 p/s | 
CCCCCCCC(=O)OCCCN(CC(=O)N(CCc1ccccc1)CC(=O)N(CC(=O)N(CCCN1CCOCC1)CC(=O)N(CC(=O)N(CCc1ccccc1)CC(=O)N(CCCOC(=O)CCCCCCC)CC(=O)N(CC(N)=O)CC(CC)CCCC)CC(CC)CCCC)CC(CC)CCCC)C(=O)CN(C=O)CC(CC)CCCC (stereo not shown) [Compound 124] | 0.118 | 85.2 nm | 93.5% | 6.20E+08 p/s | 4.35E+07 p/s | 4.34E+07 p/s | 
CCCCCCCCN(CC(=O)N(CCCOC(=O)CCCCCCC)CC(=O)N(CCSSCC(CC)CCCC)CC(=O)N(CCCCCCCC)CC(=O)N(CCCOC(=O)CCCCCCC)CC(=O)N(CCSSCC(CC)CCCC)CC(N)=O)C(=O)CNC(CO)CO (stereo not shown) [Compound 127] (H-[N(CH(CH2OH)2)Gly][N(octyl)Gly][Gly(N-(CH2)3O-octanoyl)][X1][N(octyl)Gly][Gly(N-(CH2)3O-octanoyl)][X1]-NH2) | 0.093 | 84.1 nm | 84.2% | 6.54E+09 p/s | 3.36E+08 p/s | 1.92E+08 p/s | 
CCCCCCCC(=O)OCCCN(CC(=O)N(CCCOC(=O)CCCCCCC)CC(=O)N(CCSSCC(CC)CCCC)CC(=O)N(CCCOC(=O)CCCCCCC)CC(=O)N(CCCOC(=O)CCCCCCC)CC(=O)N(CCSSCC(CC)CCCC)CC(N)=O)C(=O)CNC(CO)CO (stereo not shown) [Compound 128] (H-[N(CH(CH2OH)2)Gly][Gly(N-(CH2)3O-octanoyl)][Gly(N-(CH2)3O-octanoyl)][X1][Gly(N-(CH2)3O-octanoyl)][Gly(N-(CH2)3O-octanoyl)][X1]-NH2) | 0.098 | 62.1 nm | 89.5% | 4.01E+09 p/s | 4.20E+08 p/s | 6.68E+08 p/s | Particle Size ([1]; formulation recipe D22): 62.1 nm; Particle Size ([1]; formulation recipe R3): 77.5 nm; Particle Size ([1]; formulation recipe R4): 73.6 nm; Particle Size ([1]; formulation recipe R7): 82.7 nm; Particle Size ([1]; formulation recipe R8): 78.9 nm; % Encapsulation ([2]; formulation recipe D22): 89.5%; % Encapsulation ([2]; formulation recipe R3): 89.5%; % Encapsulation ([2]; formulation recipe R4): 87.7%; % Encapsulation ([2]; formulation recipe R7): 92.5%; % Encapsulation ([2]; formulation recipe R8): 94.4%; Total Flux (luciferase expression) ([3]; formulation recipe D22): 4.01E+09 p/s; Total Flux (luciferase expression) ([3]; formulation recipe R3): 5.39E+08 p/s; Total Flux (luciferase expression) ([3]; formulation recipe R4): 5.47E+08 p/s; Total Flux (luciferase expression) ([3]; formulation recipe R7): 1.09E+09 p/s; Total Flux (luciferase expression) ([3]; formulation recipe R8): 5.73E+08 p/s

Now from value to compound, other results behind:

PDI [1, 5] | Particle Size [1, 5] | mean percent encapsulation of RNA [2] | Compound | Total Flux [3] | IM Flux [4] | SC Flux [4] | further results
0.076 | 74.6 nm | 63.8% | CCCCCCCCCCCC(=O)OCCN(CC(=O)N(CC(=O)N(CC(=O)N(CCOC(=O)CCCCCCCCCCC)CC(=O)N(CC(N)=O)CC(CC)CCCC)CC(CC)CCCC)CC(CC)CCCC)C(=O)CN(CC(CC)CCCC)C(=O)CNC(CO)CO (stereo not shown) [Compound 3] (H-[N(CH(CH2OH)2)Gly][N(2-ethylhexyl)Gly][X4][N(2-ethylhexyl)Gly][N(2-ethylhexyl)Gly][X4][N(2-ethylhexyl)Gly]-NH2) | 6.66E+08 p/s |  |  | 
0.090 | 72.1 nm | 90.3% | CCCCCCCCCCCCN(CC(=O)N(CC(N)=O)CC(CC)CCCC)C(=O)CN(CC(CC)CCCC)C(=O)CN(CC(CC)CCCC)C(=O)CN(CCCOC(=O)CCCCCCC)C(=O)CN(CC(CC)CCCC)C(=O)CNC(CO)CO (stereo not shown) [Compound 14] (H-[N(CH(CH2OH)2)Gly][N(2-ethylhexyl)Gly][Gly(N-(CH2)3O-octanoyl)][N(2-ethylhexyl)Gly][N(2-ethylhexyl)Gly][Gly(N-dodecyl)][N(2-ethylhexyl)Gly]-NH2) | 4.76E+08 p/s |  |  | 
0.091 | 72.9 nm | 91.4% | CCCCCCCCCCCCN(CC(=O)N(CC(N)=O)CC(CC)CCCC)C(=O)CN(CCCCCCCC)C(=O)CN(CC(CC)CCCC)C(=O)CN(CCCCCCOC(=O)C(CC)CCCC)C(=O)CN(CCCCCCCC)C(=O)CNC(CO)CO (stereo not shown) [Compound 31] (H-[N(CH(CH2OH)2)Gly][N(octyl)Gly][X5][N(2-ethylhexyl)Gly][N(octyl)Gly][Gly(N-dodecyl)][N(2-ethylhexyl)Gly]-NH2) | 1.11E+09 p/s |  |  | 
0.101 | 61.2 nm | 89.2% | CCCCCCCCCC(=O)OCCCN(CC(=O)N(CCSSCC(CC)CCCC)CC(N)=O)C(=O)CN(CCCCCCCC)C(=O)CN(CCSSCC(CC)CCCC)C(=O)CN(CCCOC(=O)CCCCCCCCC)C(=O)CN(CCCCCCCC)C(=O)CNC(CO)CO (stereo not shown) [Compound 129] (H-[N(CH(CH2OH)2)Gly][N(octyl)Gly][Gly(N-(3-decanoyloxypropyl))][X1][N(octyl)Gly][Gly(N-(3-decanoyloxypropyl))][X1]-NH2) | 1.06E+09 p/s | 2.00E+08 p/s | 3.41E+08 p/s | 
